The source of these data is US8148391B2 (Cephalon, Inc., priority 2006, dated 2012).

Test [1] addresses T1, baculovirus-expressed ALK (Homo sapiens, UniProt Q9UM73).
T1 construct: host or cells: baculovirus expression system
Description: ALK Kinase Assay (ELISA-type, time-resolved fluorescence). Format: biochemical. Summed up:
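Plates coated with phospholipase C-γ substrate (10 μg/mL in TBS); reaction started with 30 ng/ml ALK and run 15 min at 37° C. Phosphorylated substrate detected with Eu-N1-labeled PT66 antibody. IC50 from sigmoidal variable-slope fit of percent inhibition vs log concentration.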

Test [2] has as its target T2, c-Met (cytoplasmic domain) (Homo sapiens, UniProt P08581).
T2 construct: 10 ng/mL c-Met (cytoplasmic domain, Invitrogen Corporation #PV3143); purchased Invitrogen Corporation PV3143
Description: c-Met Kinase Assay (same methods as for ALK, with modifications). Format: biochemical. Summed up: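 Plates were coated with phospholipase C-γ substrate (10 μg/mL) in TBS, and the reaction was started with 10 ng/mL c-Met cytoplasmic domain and run 15 min at 37 °C. Phosphoproduct was detected with Eu-N1-labelled PT66 antibody. IC50 came from a variable-slope sigmoidal fit of percent inhibition vs log concentration.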

The mark [3] stands for this setting: 1 μM ATP (Km level), 30 ng/ml ALK, 37° C., 15 minutes, read-out: ALK Activity (ALK kinase inhibition, IC50 class).
Setting [4] is: 1 μM ATP (Km level), 10 ng/mL c-Met, read-out: cMet Activity (c-Met kinase inhibition, IC50 class).
[5] abbreviates: 1 μM ATP (Km level), read-out: ALK Activity (ALK Kinase Inhibition, IC50).
Where [6] appears, read: 1 μM ATP (Km level), read-out: cMet Activity (c-Met Kinase Inhibition, IC50).
The mark [7] stands for this setting: ALK kinase inhibition, 1 μM ATP (Km level), read-out: ALK Activity.
Setting [8] is: c-Met kinase inhibition, 1 μM ATP (Km level), read-out: cMet Activity.
Where [9] appears, read: ALK kinase inhibition, 1 μM ATP, read-out: ALK Activity.
Setting [10] is: c-Met kinase inhibition, 1 μM ATP, read-out: cMet Activity.

Read-outs that look alike come from different tables or passages of the source. A value given as a limit tells only on which side of the number the result lay.

T1 sequence (Q9UM73 19-1620): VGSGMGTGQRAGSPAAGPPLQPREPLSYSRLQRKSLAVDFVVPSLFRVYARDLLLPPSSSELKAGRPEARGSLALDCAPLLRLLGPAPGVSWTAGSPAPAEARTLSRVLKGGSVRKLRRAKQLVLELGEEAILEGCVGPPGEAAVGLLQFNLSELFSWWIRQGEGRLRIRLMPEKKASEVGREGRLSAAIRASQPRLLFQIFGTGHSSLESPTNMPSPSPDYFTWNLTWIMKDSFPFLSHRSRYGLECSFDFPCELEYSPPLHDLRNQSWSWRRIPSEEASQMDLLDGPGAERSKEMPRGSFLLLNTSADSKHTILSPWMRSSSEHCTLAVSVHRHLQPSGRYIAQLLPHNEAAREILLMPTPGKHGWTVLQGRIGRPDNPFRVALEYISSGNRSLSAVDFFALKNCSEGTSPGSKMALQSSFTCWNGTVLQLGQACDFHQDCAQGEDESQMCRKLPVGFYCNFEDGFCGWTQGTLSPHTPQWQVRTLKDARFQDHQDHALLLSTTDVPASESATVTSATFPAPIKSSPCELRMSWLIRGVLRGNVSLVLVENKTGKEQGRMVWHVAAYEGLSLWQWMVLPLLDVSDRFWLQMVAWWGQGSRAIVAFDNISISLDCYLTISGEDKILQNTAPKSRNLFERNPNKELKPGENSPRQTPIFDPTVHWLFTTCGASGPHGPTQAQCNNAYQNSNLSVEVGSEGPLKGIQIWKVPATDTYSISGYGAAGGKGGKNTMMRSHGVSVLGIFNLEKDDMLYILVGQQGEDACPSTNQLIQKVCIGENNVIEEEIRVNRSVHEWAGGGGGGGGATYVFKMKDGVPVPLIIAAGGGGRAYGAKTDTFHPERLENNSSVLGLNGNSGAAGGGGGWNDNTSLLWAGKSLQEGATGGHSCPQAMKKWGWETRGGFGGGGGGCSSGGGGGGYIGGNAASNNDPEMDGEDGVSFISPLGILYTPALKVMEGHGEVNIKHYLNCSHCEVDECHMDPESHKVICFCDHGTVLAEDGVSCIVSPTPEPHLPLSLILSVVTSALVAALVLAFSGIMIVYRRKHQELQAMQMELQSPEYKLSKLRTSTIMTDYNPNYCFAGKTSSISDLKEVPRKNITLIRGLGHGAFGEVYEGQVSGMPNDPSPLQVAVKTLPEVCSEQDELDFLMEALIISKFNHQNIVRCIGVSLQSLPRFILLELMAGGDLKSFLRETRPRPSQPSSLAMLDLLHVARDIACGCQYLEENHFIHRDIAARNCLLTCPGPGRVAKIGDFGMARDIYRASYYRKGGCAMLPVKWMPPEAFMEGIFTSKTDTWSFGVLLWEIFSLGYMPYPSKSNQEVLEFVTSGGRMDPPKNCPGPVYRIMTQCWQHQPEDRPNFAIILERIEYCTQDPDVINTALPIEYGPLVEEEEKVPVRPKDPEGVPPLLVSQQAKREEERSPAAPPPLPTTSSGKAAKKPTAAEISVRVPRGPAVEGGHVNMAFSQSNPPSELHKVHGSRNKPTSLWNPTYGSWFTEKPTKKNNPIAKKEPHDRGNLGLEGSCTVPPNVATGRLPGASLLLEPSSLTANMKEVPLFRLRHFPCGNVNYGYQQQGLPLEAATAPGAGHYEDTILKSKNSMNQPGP
T2 sequence (P08581 956-1390 limits assumed): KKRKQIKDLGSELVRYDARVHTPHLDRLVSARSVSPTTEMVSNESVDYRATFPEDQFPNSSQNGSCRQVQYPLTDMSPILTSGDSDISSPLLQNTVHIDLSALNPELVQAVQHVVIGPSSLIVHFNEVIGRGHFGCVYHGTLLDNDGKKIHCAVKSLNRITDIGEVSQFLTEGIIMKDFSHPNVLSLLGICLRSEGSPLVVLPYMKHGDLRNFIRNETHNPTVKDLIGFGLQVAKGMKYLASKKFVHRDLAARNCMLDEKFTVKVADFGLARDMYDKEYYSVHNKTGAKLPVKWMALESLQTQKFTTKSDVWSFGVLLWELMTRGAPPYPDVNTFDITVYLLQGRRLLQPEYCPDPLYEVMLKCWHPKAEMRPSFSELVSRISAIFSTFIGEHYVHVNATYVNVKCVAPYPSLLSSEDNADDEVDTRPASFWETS

As to `CNC(=O)c1cc(N(C)C)ccc1Nc1nc(Nc2ccc3c(c2)NC(=O)CCC3)ncc1Cl` [Example 1412, 2-[5-Chloro-2-(2-oxo-2,3,4,5-tetrahydro-1H-benzo[b]azepin-8-ylamino)-pyrimidin-4-ylamino]-5-dimethylamino-N-methyl-benzamide], the IC50 in test [1] (setting [3]) and in test [2] (setting [4]) was 100 to 1000 nM each time.

With `COc1ccccc1Nc1nc(Nc2ccc3c(c2)CCC(NCC(F)(F)F)CC3)ncc1Cl` (centres unmarked) [Example 658, 5-Chloro-N*4*-(2-methoxy-phenyl)-N*2*-[7-(2,2,2-trifluoro-ethylamino)-6,7,8,9-tetrahydro-5H-benzocyclohepten-2-yl]-pyrimidine-2,4-diamine], the IC50 in test [1] (setting [5]) was 100 to 1000 nM; in test [2] (setting [6]), above 10000 nM.

For the compound `CNC(=O)c1cc(Cl)cc(Cl)c1Nc1nc(Nc2ccc3c(c2)CCN(CCOC)CC3)ncc1Cl` [Example 314, 3,5-Dichloro-2-{5-chloro-2-[3-(2-methoxy-ethyl)-2,3,4,5-tetrahydro-1H-benzo[d]azepin-7-ylamino]-pyrimidin-4-ylamino}-N-methyl-benzamide], the IC50 was 100 to 1000 nM in test [1] (setting [7]) and below 100 nM in test [2] (setting [8]).

Take `Cc1noc(-c2cccc(F)c2Nc2nc(Nc3ccc4c(c3)CCOC(=O)N4C)ncc2Cl)n1` [Example 1785, 2-{5-Chloro-4-[2-fluoro-6-(3-methyl-[1,2,4]oxadiazol-5-yl)-phenylamino]-pyrimidin-2-ylamino}-5-methyl-8,9-dihydro-5H-7-oxa-5-aza-benzocyclohepten-6-one]: the IC50 in test [1] (setting [9]) lay within 1000 to 10000 nM; in test [2] (setting [10]) it was 100 to 1000 nM.

Regarding `CNS(=O)(=O)c1ccccc1Nc1nc(Nc2ccc3c(c2)C2CCC3CN(S(C)(=O)=O)C2)ncc1Cl` (centres unmarked) [Example 286, 2-[5-Chloro-2-(10-methanesulfonyl-10-aza-tricyclo[6.3.2.0*2,7*]trideca-2,4,6-trien-4-ylamino)-pyrimidin-4-ylamino]-N-methyl-benzenesulfonamide], the IC50 in test [1] (setting [7]) and in test [2] (setting [8]) was below 100 nM each time.

Regarding `CNC(=O)c1cccc(C(F)(F)F)c1Nc1nc(Nc2ccc3c(c2)CCOC(=O)N3C)ncc1Cl` [Example 1753, 2-[5-Chloro-2-(5-methyl-6-oxo-5,6,8,9-tetrahydro-7-oxa-5-aza-benzocyclohepten-2-ylamino)-pyrimidin-4-ylamino]-N-methyl-3-trifluoromethyl-benzamide], the IC50 in test [1] (setting [9]) is above 10000 nM; in test [2] (setting [10]), 100 to 1000 nM.

As for `CNC(=O)c1sccc1Nc1nc(Nc2ccc3c(c2)OCCCN3C(=O)OCCCN(C)C)ncc1Cl` [Example 1428, 3-[5-Chloro-4-(2-methylcarbamoyl-thiophen-3-ylamino)-pyrimidin-2-ylamino]-7,8-dihydro-6H-5-oxa-9-aza-benzocycloheptene-9-carboxylic acid 3-dimethylamino-propyl ester], the IC50 in test [1] (setting [3]) and in test [2] (setting [4]) was 100 to 1000 nM throughout.

Take `COc1ccc(Nc2nc(Nc3cc4c(cc3OC)CN(CC3CC3)CC(=O)N4C)ncc2Cl)c(-n2cccn2)c1` [Example 748, 8-[5-Chloro-4-(4-methoxy-2-pyrazol-1-yl-phenylamino)-pyrimidin-2-ylamino]-cyclopropylmethyl-7-methoxy-1-methyl-1,3,4,5-tetrahydro-benzo[e][1,4]diazepin-2-one]: the figures for the IC50 in test [1] (setting [5]) and in test [2] (setting [6]) were below 100 nM and above 10000 nM, respectively.

With `CNC(=O)c1cccc(C)c1Nc1nc(Nc2ccc3c(c2)N(CCOC)C(=O)CCC3)ncc1Cl` [Example 361, 2-{5-Chloro-2-[1-(2-methoxy-ethyl)-2-oxo-2,3,4,5-tetrahydro-1H-benzo[b]azepin-8-ylamino]-pyrimidin-4-ylamino}-3,N-dimethyl-benzamide], the IC50 in test [1] (setting [7]) was 1000 to 10000 nM; in test [2] (setting [8]), below 100 nM.

With `CCN1C(=O)C(NC(=O)C(F)(F)F)CC(C)(C)c2ccc(Nc3ncc(Cl)c(Nc4c(F)cccc4C(=O)NC)n3)cc21` (centres unmarked) [Example 1642, 2-{5-Chloro-2-[1-ethyl-5,5-dimethyl-2-oxo-3-(2,2,2-trifluoro-acetylamino)-2,3,4,5-tetrahydro-1H-benzo[b]azepin-8-ylamino]-pyrimidin-4-ylamino}-3-fluoro-N-methyl-benzamide], the IC50 was 100 to 1000 nM in test [1] (setting [9]) and below 100 nM in test [2] (setting [10]).

As for `COc1cc2c(cc1Nc1ncc(Cl)c(N[C@@H]3CCCC[C@H]3NS(C)(=O)=O)n1)CCN(CCN1CCOCC1)CC2` [Example 1533, N-((1R,2R)-2-{5-Chloro-2-[8-methoxy-3-(2-morpholin-4-yl-ethyl)-2,3,4,5-tetrahydro-1H-3-benzazepin-7-ylamino]-pyrimidin-4-ylamino}-cyclohexyl)-methanesulfonamide], the IC50 in test [1] (setting [9]) is below 100 nM; in test [2] (setting [10]) it was above 10000 nM.

For `CCN1CCN(CC)c2cc(Nc3ncc(Cl)c(Nc4ccccc4NS(C)(=O)=O)n3)ccc2C1` [Example 425, N-{2-[5-Chloro-2-(1,4-diethyl-2,3,4,5-tetrahydro-1H-benzo[e][1,4]diazepin-8-ylamino)-pyrimidin-4-ylamino]-phenyl}-methanesulfonamide], the IC50 in test [1] (setting [7]) is below 100 nM; in test [2] (setting [8]), 100 to 1000 nM.

With `CS(=O)(=O)N[C@@H]1CCCC[C@H]1Nc1nc(Nc2ccc3c(c2)CCC(NCC(F)F)CC3)ncc1Cl` (stereo partly drawn) [Example 662, N-((1R,2R)-2-{5-Chloro-2-[7-(2,2-difluoro-ethylamino)-6,7,8,9-tetrahydro-5H-benzocyclohepten-2-ylamino]-pyrimidin-4-ylamino}-cyclohexyl)-methanesulfonamide], the IC50 was below 100 nM in test [1] (setting [5]) and 100 to 1000 nM in test [2] (setting [6]).

Regarding `CCN([C@@H]1CCCC[C@H]1Nc1nc(Nc2cc3c(cc2OC)CCN(CCOC)CC3)ncc1Cl)S(C)(=O)=O` [Example 1677, N-((1R,2R)-2-{5-Chloro-2-[8-methoxy-3-(2-methoxy-ethyl)-2,3,4,5-tetrahydro-1H-benzo[d]azepin-7-ylamino]-pyrimidin-4-ylamino}-cyclohexyl)-N-ethyl-methanesulfonamide], the IC50 in test [1] (setting [9]) is below 100 nM; in test [2] (setting [10]), above 10000 nM.

For the compound `C#CCNC(=O)c1cccc(F)c1Nc1nc(Nc2ccc3c(c2)N(CC)CC(O)(CO)CO3)ncc1Cl` (centres unmarked) [Example 1721, 2-[5-Chloro-2-(9-ethyl-7-hydroxy-7-hydroxymethyl-6,7,8,9-tetrahydro-5-oxa-9-aza-benzocyclohepten-2-ylamino)-pyrimidin-4-ylamino]-3-fluoro-N-prop-2-ynyl-benzamide], the IC50 in test [1] (setting [9]) and in test [2] (setting [10]) was 100 to 1000 nM in each case.

Turning to `CNC(=O)c1ccccc1Nc1nc(Nc2ccc3c(c2)CNC(=O)CC3)ncc1Cl` [Example 1794, 2-[5-Chloro-2-(3-oxo-2,3,4,5-tetrahydro-1H-benzo[c]azepin-8-ylamino)-pyrimidin-4-ylamino]-N-methylbenzamide], the IC50 in test [1] (setting [9]) and in test [2] (setting [10]) was below 100 nM throughout.

`Cn1cnc2c(Nc3nc(Nc4ccc5c(c4)C(C)(C)CCC(=O)N5)ncc3Cl)cccc21` [Example 1005, 7-[5-Chloro-4-(1-methyl-1H-benzoimidazol-4-ylamino)-pyrimidin-2-ylamino]-5,5-dimethyl-1,3,4,5-tetrahydro-benzo[b]azepin-2-one]: the IC50 is below 100 nM in test [1] (setting [5]) and 100 to 1000 nM in test [2] (setting [6]).

With `CCN1CCc2ccc(Nc3ncc(Cl)c(N[C@@H]4CCCC[C@H]4NC(=O)C(F)(F)F)n3)cc2CC1` [Example 446, N-{(1R,2R)-2-[5-Chloro-2-(3-ethyl-2,3,4,5-tetrahydro-1H-benzo[d]azepin-7-ylamino)-pyrimidin-4-ylamino]-cyclohexyl}-2,2,2-trifluoro-acetamide], the figures for the IC50 in test [1] (setting [7]) and in test [2] (setting [8]) were below 100 nM and 100 to 1000 nM, respectively.

For `CNC(=O)c1noc(C)c1Nc1nc(Nc2ccc3c(c2)CCOC(=O)N3C)ncc1Cl` [Example 1775, 4-[5-Chloro-2-(5-methyl-6-oxo-5,6,8,9-tetrahydro-7-oxa-5-aza-benzocyclohepten-2-ylamino)-pyrimidin-4-ylamino]-5-methyl-isoxazole-3-carboxylic acid methyl amide], the IC50 in test [1] (setting [9]) is above 10000 nM; in test [2] (setting [10]), 1000 to 10000 nM.

As to `COc1cc2c(cc1Nc1ncc(Cl)c(Nc3ccccc3S(=O)(=O)N(C)C)n1)CCNC(=O)C2` [Example 1194, 2-[5-Chloro-2-(8-methoxy-2-oxo-2,3,4,5-tetrahydro-1H-benzo[d]azepin-7-ylamino)-pyrimidin-4-ylamino]-N,N-dimethyl-benzenesulfonamide], the IC50 in test [1] (setting [3]) is below 100 nM; in test [2] (setting [4]), 1000 to 10000 nM.

“N-((1R,2R)-2-{5-Chloro-2-[7-(2,2,2-trifluoro-ethylamino)-6,7,8,9-tetrahydro-5H-benzocyclohepten-2-ylamino]-pyrimidin-4-ylamino}-cyclohexyl)-methanesulfonamide [Example 676]”: the figures for the IC50 in test [1] (setting [5]) and in test [2] (setting [6]) were below 100 nM and above 10000 nM, respectively.

In the case of `CNC(=O)c1scc(C)c1Nc1nc(Nc2ccc3c(c2)NC(=O)CN(C)C3)ncc1Cl` [Example 1868, 3-[5-Chloro-2-(4-methyl-2-oxo-2,3,4,5-tetrahydro-1H-benzo[e][1,4]diazepin-8-ylamino)-pyrimidin-4-ylamino]-4-methyl-thiophene-2-carboxylic acid methylamide], the figures for the IC50 in test [1] (setting [9]) and in test [2] (setting [10]) were 100 to 1000 nM and below 100 nM, respectively.
